Results reported in patent US9579299B2, “CNS pharmaceutical compositions and methods of use” (TARGIA PHARMACEUTICALS, priority 2008, dated 2017).
“And” between values parts separate entries of the source, which are not always exact repeats. Equal entries are not always repeated. “Also recorded” adds a separate entry of the source.

Tests used:
[1] = CNS active agent; cited from earlier work
[2] = system: 8 patients suffering from GAD; assay: Example 10: single blind trial of alprazolam with neuromodulators in GAD; type: in vivo, human; conditions: alprazolam 1 mg with pseudoephedrine 60 mg, guaifenesinER 600 mg 15 minutes later; one week
Experimental: The study was a single blind trial in which a panel of 8 patients suffering from GAD were administered alprazolam (1 mg), pseudoephedrine (60 mg), and guaifenesinER (600 mg). Subjects underwent an initial screening and then two weeks of testing with the medications of the study (see FIG. 7 for an illustration of the study scheme). Fourteen days prior to the first treatment session, subjects were screened with a standard medical/psychiatric history and physical exam (Screening Visit, Visit 1). Standard laboratory tests were performed at Screening Visit 1 including those of chemistry, hematology and urinalysis, urine test for drugs of abuse, HIV and hepatitis B and C serology tests, 12-lead resting electrocardiogram, and serum pregnancy test for females.
Prior to administration of the placebo treatment, the subjects were rated on the Hamilton Anxiety Scale, Quality of Life Questionnaire, and the Stanford Sleepiness Scale (SSS) (Visit 2, data not shown). Subjects complained of oversedation (SSS score of 4 or greater) from their psychopharmacologic regimen, which included benzodiazepine or alprazolam therapy.
Subjects were given a placebo medication that mimics the two neuromodulators for 7 days and underwent another series of tests at the end of this 7-day period (Visit 3). […]

[3] = parent drug; cited from earlier work
four healthy volunteers [4] = assay: Example 7: Stanford Sleepiness Scale study with alprazolam; type: in vivo, human; conditions: for time until subjects were asleep: all four subjects; for 2 Hr SSS / 4 Hr SSS / 6 Hr SSS: individual subjects
Experimental: The research study was performed on four healthy volunteers, ages 25-41 years old and 60-75 kg. The study was carried out in two sessions with one week in between. During the study volunteers completed a test to measure sleepiness by Stanford Sleepiness Scale (SSS). This SSS test was done before doses of the compositions being evaluated and 2, 4 and 6 hours after such doses (see FIG. 5 for an illustration of the study scheme).
At the first session, volunteers received the treatment (Alprazolam 1.0 mg)+PLAC (placebo)+ and 15 minutes later another PLAC. […] Their SSS score at 2 hour time point was 6 (woozy, fighting sleep). […] The other 2 patients slept through the 2, 4 and 6 hour testing.
At the second study session, volunteers received the treatment (Alprazolam 1.0 mg+60 mg of pseudoephedrine) and 15 minutes later received 400 mg of guaifenesin. […] After 2 and half hours, three out of the four subjects woke up and stayed awake for the rest of the time. Their SSS scores for 4 hour time point test were 2, 3 and 5, for 6 hour time point test SSS scores were 1, 3, 2. The fourth subject woke up for the 6 hour time point test and their SSS score was 3.

[5] = system: one GAD patient, a person; assay: Example 11: alprazolam with neuromodulators in one GAD patient; type: in vivo, human
Experimental: The study was performed on one GAD patient. Fourteen days prior to the first treatment session, the subject was screened with a standard medical/psychiatric history and physical exam. The subject was rated on the Hamilton Anxiety Scale the Stanford Sleepiness Scale (SSS).
During their second visit, immediately prior to administration of alprazolam and placebo, the subject was rated on the Hamilton Anxiety Scale, Quality of Life Questionaire and SSS (pre dose, time 0). Following these tests, the subject received a regular morning alprazolam dose and placebo to mimic pseudoephedrine. Fifteen minutes later, the subject received approximately 120 ml of water and placebo to mimic guaifenesin. The subject was rated on the SSS at 2 hours (anticipated peak plasma concentration) and 4 hours following administration alprazolam. The subject was given enough placebo medication to last for one week (until Visit 3) with the exact instructions to take their medications in the same manner as described above. During this 7-day period, the subject completed an SSS questionaire (Table 16, Placebo). Ratings on the SSS were recorded immediately before (pre) and 3 hours following (post) administration of alprazolam.
During Visit 3, the subject was rated on the Hamilton Anxiety Scale, Quality of Life Questionaire, and SSS 3 hours after initial dose. The subject was then given the active neuromodulators and told to start with them on the next day following ingestion of the regular alprazolam medication. The subject took pseudoephedrine with alprazolam and Mucinex 15 minutes later (neuromodulators were given no more than twice a day and not after 6 PM). Three hours after each dose, the subject recorded their SSS measurements (Table 16, Treatment). […] Throughout this week, the subject recorded SSS scores of 1 (high alertness, no sedatition).

[6] = system: Volunteer A, a healthy person; assay: Example 6: Volunteer A, Lorazepam with and without neuromodulators; type: in vivo, human
Experimental: Volunteer A, a healthy person ([…], 95 Kg), was prescribed 1 mg Lorazepam (BDR) by their family doctor for anxiety and anxiety related insomnia. Volunteer A took Lorazepam in conjunction with the neuromodulators to reduce Lorazepam's associated sedative side-effects. Volunteer A, who felt their anxiety peak particularly on weekends, agreed to take Lorazepam during the day together with the neuromodulators. […] When taking Lorazepam simultaneously with Pseudoephedrine, Guaifenesin and, Volunteer A was sedated and less anxious.

four healthy volunteers [7] = assay: Example 9: Stanford Sleepiness Scale study with lorazepam; type: in vivo, human; conditions: for 2:00 SSS / 4:00 SSS / 6:00 SSS / time until subject was asleep: individual subjects
Experimental: The purpose of this study was to determine if the co-administration of pseudoephedrine and guaifenesin with lorazepam is effective in reducing the sedation commonly seen with the administration of lorazepam alone. The research study was performed on four healthy volunteers ages 25-41 years old and 60-75 kg. The study was carried out by two sessions with a one-week interval between the sessions. During the study volunteers completed a set of tests to measure sleepiness by the Stanford Sleepiness Scale (SSS). This test was done before doses of study drug and 2, 4 and 6 hours after doses of study drug (see FIG. 5 for an illustration of the study scheme).
At the first study session volunteers received the treatment (Lorazepam 1.0 mg)+PLAC (placebo)+ and 15 minutes later another PLAC. […] They stayed awake at the 4- and 6-hour time points. Their SSS scores were 2. Two subjects were asleep in one hour. One of them slept 3.5 hours, their SSS at the 6-hour time point was 2. The second subject slept 2.5 hours, and their SSS scores for both the 4- and 6-hour time points were 2. […] They remained awake at the 4- and 6-hour time points. Their SSS scores were 2.
At the second study session volunteers received the treatment (Lorazepam 1.0 mg+60 mg of pseudoephedrine) and 15 minutes later received 400 mg of guaifenesin. During this session all four subjects remained awake most of the time. […] They missed the 2-hour time point measurement, and their SSS scores for the 4- and 6-hour time points were 2 and 3, respectively. […] Their SSS score for 2-hour time point was 2. This subject was asleep again within 3 and a half hours and slept for one hour. They missed the 4-hour time point, but was awake for measurements at the 6-hour time point (SSS was 2). […] They stayed awake the rest of the time, and their SSS scores for the 2-, 4-, and 6-hour time points were 3,2,3 respectively.

subject = assay: Example 5: Lorazepam with pseudoephedrine and Mucinex, subject report; type: in vivo, human; conditions: Lorazepam 1 mg and pseudoephedrine 60 mg; 15 minutes later Mucinex 600 mg
Experimental: The subject reported that they took Lorazepam 1 mg and pseudoephedrine 60 mg at 12 noon and 15 minutes later ingested and Mucinex 600 mg.

[8] = First Visit Day on Placebo: Alprazolam 1.0 mg + placebo
[9] = First Visit Day on Placebo: Alprazolam 1.0 mg + placebo, listed as alprazolam
[10] = Second Visit Day on Active Neuromodulation: Alprazolam 1.0 mg + 60 mg pseudoephedrine, 400 mg guaifenesin 15 minutes later
[11] = Second Visit Day on Active Neuromodulation: Alprazolam 1.0 mg + 60 mg pseudoephedrine, 400 mg guaifenesin 15 minutes later, listed as alprazolam
[12] = 1 mg Lorazepam together with Pseudoephedrine followed by Guaifenesin after 15 minutes
[13] = Lorazepam followed 15 minutes later by Guaifenesin
[14] = Lorazepam simultaneously with Pseudoephedrine, Guaifenesin
[15] = Lorazepam together with pseudoephedrine
[16] = First Visit Day on Placebo: Lorazepam 1.0 mg + placebo
[17] = First Visit Day on Placebo: Lorazepam 1.0 mg + placebo, listed as lorazepam
[18] = Lorazepam 1.0 mg + pseudoephedrine, guaifenesin 15 minutes later
[19] = Second Visit Day on Active Neuromodulation: Lorazepam 1.0 mg + 60 mg pseudoephedrine, 400 mg guaifenesin 15 minutes later
[20] = Second Visit Day on Active Neuromodulation: Lorazepam 1.0 mg + 60 mg pseudoephedrine, 400 mg guaifenesin 15 minutes later, listed as lorazepam

Structure (SMILES): Cc1nnc2n1-c1ccc(Cl)cc1C(c1ccccc1)=NC2 [Alprazolam]
- Tmax [1]: 1 to 2 h
- bioactivity [1]: 55%
- sedation-related effects as measured by the SSS [2]: significantly reduced
- Elimination Half-Life [3]: 6 to 12 h
- time until subjects were asleep (four healthy volunteers [4]; Alprazolam 1.0 mg + placebo): within an hour and a half
- time until subjects were asleep (four healthy volunteers [4]; Alprazolam 1.0 mg + pseudoephedrine, guaifenesin 15 minutes later): within an hour and a half
- 2 Hr SSS (four healthy volunteers [4]; [8]): 6
- 4 Hr SSS (four healthy volunteers [4]; [8]): 6
- 2 Hr SSS (four healthy volunteers [4]; [9]): X - asleep (3×) and 6
- 4 Hr SSS (four healthy volunteers [4]; [9]): X - asleep (3×) and 6
- 6 Hr SSS (four healthy volunteers [4]; [9]): X - asleep (3×) and 3
- 2 Hr SSS (four healthy volunteers [4]; [10]): X - asleep
- 4 Hr SSS (four healthy volunteers [4]; [10]): 2 and 3 and 5
- 6 Hr SSS (four healthy volunteers [4]; [10]): 1 and 3 and 2
- 4 Hr SSS (four healthy volunteers [4]; [11]): 2 and X - asleep and 5 and 3
- 6 Hr SSS (four healthy volunteers [4]; [11]): 1 and 3 (2×) and 2
- total sleep time (four healthy volunteers [4]; second session, Alprazolam administrated with neuromodulators, all four patients): 1.5 to 2.5 h
- alertness and sedation by SSS, in words ([5]; 7-day period on alprazolam + placebo): significantly reduced alertness and increased sedation
- SSS Score ([5]; Placebo (alprazolam + placebo), post: 3 hours following alprazolam, Days 1-7): X - asleep
- SSS Score ([5]; Placebo column, 3 h post dose (before Day 1)): X - asleep
- SSS Score ([5]; Placebo column, Screen): 6
- SSS Score ([5]; Treatment (alprazolam + pseudoephedrine, Mucinex 15 minutes later), post: three hours after dose, Days 8-15): 1
- SSS Score ([5]; Treatment (alprazolam + pseudoephedrine, Mucinex 15 minutes later), pre, Days 10-15): 1
- efficacy by Hamilton Anxiety Scale ([5]; alprazolam + active neuromodulators): did not show any reduction in the efficacy
- SSS data relative to placebo treatment, in words ([5]; week on alprazolam + active neuromodulators): dramatic improvement relative to the placebo treatment

Structure (SMILES): O=C1Nc2ccc(Cl)cc2C(c2ccccc2Cl)=NC1O (centres unmarked) [Lorazepam]
- Tmax [1]: 2 h
- bioactivity [1]: 90%
- anxiety reported [6, 12]: feeling at ease and anxiety free
- sedation reported [6, 12]: did not feel sedated
- anxiety reported ([6]; Lorazepam alone): their anxiety was ameliorated
- sedation reported ([6]; Lorazepam alone): severely sedated
- sleep in an afternoon ([6]; Lorazepam alone): over 3 hours
- anxiety reported [6, 13]: hostile and anxious
- sedation reported [6, 13]: somewhat sedated
- anxiety reported [6, 14]: less anxious
- sedation reported [6, 14]: sedated
- anxiety reported [6, 15]: upon waking felt much less anxious than without treatment
- sedation reported [6, 15]: as sedated as with Lorazepam alone
- 2:00 SSS (four healthy volunteers [7]; [16]): X - Asleep
- 4:00 SSS (four healthy volunteers [7]; [16]): 2
- 6:00 SSS (four healthy volunteers [7]; [16]): 2
- 4:00 SSS (four healthy volunteers [7]; [17]): 2 (2×) and 3 and X - Asleep
- 6:00 SSS (four healthy volunteers [7]; [17]): 2 (3×) and X - Asleep
- sleep duration of individual subjects (four healthy volunteers [7]; Lorazepam 1.0 mg + placebo): three hours and 3.5 hours and 2.5 hours and 1 hour 15 minutes
- time until subject was asleep (four healthy volunteers [7]; Lorazepam 1.0 mg + placebo): within a half hour; also recorded: in one and a half hours
- sleep duration of individual subjects (four healthy volunteers [7]; [18]): stayed awake throughout the study and half an hour and 15 minutes and one hour
- time until subject was asleep (four healthy volunteers [7]; [18]): within an hour and a half
- 2:00 SSS (four healthy volunteers [7]; [19]): 3 and 2
- 4:00 SSS (four healthy volunteers [7]; [19]): 3 and 2
- 6:00 SSS (four healthy volunteers [7]; [19]): 3 and 2
- 2:00 SSS (four healthy volunteers [7]; [20]): 3 (2×) and X - Asleep and 2
- 4:00 SSS (four healthy volunteers [7]; [20]): 3 and 2 (2×) and X - Asleep
- 6:00 SSS (four healthy volunteers [7]; [20]): 3 (3×) and 2
- total sleep time (four healthy volunteers [7]; second session, Lorazepam administrated with neuromodulators, two subjects): 30 min
- Elimination Half-Life [3]: 10 to 20 h
- subject-reported effects (subject): a little “loopy”
